Laboratory results taken from patent US4725600A, “Pyrimidine compounds having activity as a cardiotonic anti-hypertensive cerebrovascular vasodilator and anti-platelet aggregation agent” (Fujisawa Pharmaceutical Co., Ltd., priority 1984, dated 1988).
Read-outs that look alike come from different tables or passages of the source.

Key:
Mongrel dogs = assay: Cardiotonic activity (Test Method A): percentage of dp/dt max change in anesthetized mongrel dogs; type: in vivo; details: Canis lupus familiaris, iv, injected into the femoral vein, read-out: dp/dt M.C. (percentage of dp/dt max changes)
Experimental: Mongrel dogs of either sex were anesthetized with sodium pentobarbital, 35 mg/kg, i.p. The animals were allowed to breathe spontaneously. The left carotid artery was isolated and a catheter (USCI, #8F) filled with heparinized saline was inserted and advanced into the left ventricle. The catheter was connected to a pressure transducer (Nihonkohden, MPU-0.5A) to measure the left ventricular pressure, from which dp/dt max was derived by analog computing. To measure the systemic blood pressure the left femoral artery was cannulated. The blood pressure pulse was used to trigger a heart rate meter. Another catheter was positioned in the vena cave through right femoral vein for injection of drugs. Systemic blood pressure, left ventricular pressure, dp/dt max and heart rate were recorded simultaneously on a polygram (Nihonkohden, RJG-4008).
Test compound was dissolved in distilled water (0.2 ml/kg) or dimethyl sulfoxide (0.04 ml/kg) and injected into the femoral vein. The parameters after dosing were compared with those during the predosing period.
Test results were represented in terms of percentage of dp/dt max changes (dp/dt M.C.) calculated by following formula, and are shown in table 1. [formula]

[1] = system: Platelet rich plasma (PRP); assay: Anti-platelet activity (Test Method B): inhibition of ADP- or collagen-induced aggregation in rabbit platelet rich plasma; type: cell-based; details: Oryctolagus cuniculus, 37° C.
Experimental: Platelet rich plasma (PRP) which contains 6.5-7.5×10^8 platelet/ml was prepared from rabbit blood. To the 200 μl of PRP, 5 μl of calcium chloride (1 mM) and 50 μl of pH 7.4 Tris-acetate solution (5 mM) containing 120 mM NaCl and test compound were added successively, and then stirred for 2 min. at 37° C. To the solution 5 μl of adenosine diphosphate (ADP) (2.5 μM) or collagen (2.5 μg/ml) was added as an agregation inducer. Aggregation was measured by using an aggregometer (NKK HEMA TRACER 1).

male Wistar rats (DOCA) = assay: Antihypertensive activity (Test Method C): maximum decrease of blood pressure in DOCA-treated uninephrectomized rats; type: in vivo; details: 1.0 mg/kg, oral; DOCA hypertensive rats, mean arterial pressure
Experimental: Antihypertensive activity
Five-week old male Wistar rats were uninephrectomized under anesthesia. Deoxycorticosterone acetate (DOCA) (30 mg/kg), suspended in peanut oil, was injected subcutaneously twice a week and 1% saline was substituted for the drinking water. Animals with mean blood pressure 150-200 mmHg were used for experiment between 5 and 7 weeks after surgery.
The test compounds were administered orally. Blood pressure was measured at the femoral artery by means of a pressure transducer and recorded as electrically integrated values of mean arterial pressure.

| SMILES | change in vivo at 0.1 mg/kg (Mongrel dogs) [%] | also measured |
| --- | --- | --- |
| Nc1cc(-c2ccncc2)c[nH]c1=O [Amrinone, 3-Amino-5-(4-pyridyl)-2(1H)-pyridinone, reference compound] | 9 | – |
| COc1ccc(-c2cc(=Nc3c(C)cc(C)cc3C)n(C)c(Cl)n2)cc1OC [Example 1, 2-chloro-3,4-dihydro-6-(3,4-dimethoxyphenyl)-3-methyl-4-(2,4,6-trimethylphenylimino)pyrimidine] | 45 | – |
| COc1ccc(-c2cc(=Nc3c(C)cc(C)cc3C)n(C)cn2)cc1OC [Example 2, 3,4-dihydro-6-(3,4-dimethoxyphenyl)-3-methyl-4-(2,4,6-trimethylphenylimino)pyrimidine] | 114 | IC50 ([1]; aggregation inducer ADP (2.5 μM), pH 7.4, read-out: ID50, ADP): 260 nM; IC50 ([1]; aggregation inducer collagen (2.5 μg/ml), pH 7.4, read-out: ID50, Collagen): 360 nM; Effect Max (mean ratio of maximum decrease of blood pressure) (male Wistar rats (DOCA)): 39.0% |
| COc1ccc(-c2cc(=Nc3c(C)cc(C)cc3C)n(C)c(N(C)Cc3ccccc3)n2)cc1OC [Example 3, 3,4-dihydro-6-(3,4-dimethoxyphenyl)-3-methyl-2-(N-methyl-N-benzylamino)-4-(2,4,6-trimethylphenylimino)pyrimidine] | 29 | – |
| COc1ccc(-c2cc(=Nc3c(C)cc(C)cc3C)n(C)c3nncn23)cc1OC [Example 11, 7,8-dihydro-5-(3,4-dimethoxyphenyl)-8-methyl-7-(2,4,6-trimethylphenylimino)-1,2,4-triazolo[4,3-a]pyrimidine] | 60 | – |
| COc1ccc(-c2cc(=Nc3c(C)cc(C)cc3C)n(C)c3nnnn23)cc1OC [Example 12, 4,5-dihydro-7-(3,4-dimethoxyphenyl)-4-methyl-5-(2,4,6-trimethylphenylimino)tetrazolo[1,5-a]pyrimidine] | 152 | – |
| COc1ccc(-c2cc(=Nc3c(C)cc(C)cc3C)n(C)c(C)n2)cc1OC [Example 18, 3,4-dihydro-6-(3,4-dimethoxyphenyl)-2,3-dimethyl-4-(2,4,6-trimethylphenylimino)pyrimidine] | 72 | – |
| COc1ccc(-c2cc(N(C)c3c(C)cc(C)cc3C)nc(C)n2)cc1OC [Examples (17-6) and 20, 6-(3,4-dimethoxyphenyl)-2-methyl-4-[N-methyl-N-(2,4,6-trimethylphenyl)amino]pyrimidine] | 76 | – |
| CCn1c(C)nc(-c2ccc(OC)c(OC)c2)cc1=Nc1c(C)cc(C)cc1C [Examples (17-12) and (19-12), 3,4-Dihydro-6-(3,4-dimethoxyphenyl)-3-ethyl-2-methyl-4-(2,4,6-trimethylphenylimino)pyrimidine] | 87 | – |
